This passage reports IC50 results from patent US9745283B2, “Uracil derivatives as AXL and c-MET kinase inhibitors” (priority 2011, dated 2017).

Experiment [1] deals with recombinant human baculovirus-expressed AXL (Homo sapiens (Human), UniProt P30530). As to the kind of experiment: AXL Kinase Assay (HTRF KinEASE). Format: biochemical. The conditions noted are these: average of two or more determinations.
Experiment [2] addresses recombinant human baculovirus-expressed cMET (Homo sapiens (Human), UniProt P08581). Kind of experiment: C-MET Kinase Assay (HTRF KinEASE). The format is biochemical. As to conditions: average of two or more determinations; read-out: c-MET IC50. In short, it runs like this:
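HTRF KinEASE format with recombinant human baculovirus-expressed cMET at 8 ng/mL, biotinylated peptide at 0.1 μM and ATP at 0.02 μM. IC50 came from percent control activity versus log concentration, fitted by nonlinear regression to a variable-slope sigmoidal equation with bottom fixed at 0 and top at 100.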

What is called IC50 is the midpoint of a concentration-inhibition curve. Consider `CCCn1cc(C(=O)Nc2ccc(C(=O)c3ccnc4cc(OC)c(OC)cc34)c(F)c2)c(=O)n(-c2ccc(F)cc2)c1=O` [Example 102, 3-(4-Fluoro-phenyl)-2,4-dioxo-1-propyl-1,2,3,4-tetrahydro-pyrimidine-5-carboxylic acid [4-(6,7-dimethoxy-quinoline-4-carbonyl)-3-fluoro-phenyl]-amide], for which the IC50 in experiment [1] and in experiment [2] was below 10 nM in each case.
As to `COc1cc2nccc(Oc3ccc(NC(=O)c4nn(C(C)C)c(=O)n(-c5ccc(F)cc5)c4=O)cc3F)c2cc1OC` [Example 103, 4-(4-Fluoro-phenyl)-2-isopropyl-3,5-dioxo-2,3,4,5-tetrahydro-[1,2,4]triazine-6-carboxylic acid [4-(6,7-dimethoxy-quinolin-4-yloxy)-3-fluoro-phenyl]-amide], the values for the IC50 in experiment [1] and in experiment [2] were below 10 nM and 10 to 100 nM, respectively.
For `COc1cc2nccc(Oc3ccc(NC(=O)c4nn(C)c(=O)n(-c5ccc(F)cc5)c4=O)cc3F)c2cc1OC` [Example 104, 4-(4-Fluorophenyl)-2-methyl-3,5-dioxo-2,3,4,5-tetrahydro-[1,2,4]triazine-6-carboxylic acid [4-(6,7-dimethoxy-quinolin-4-yloxy)-3-fluoro-phenyl]-amide], in that order: below 10 nM and below 10 nM.
For `CCn1nc(C(=O)Nc2ccc(Oc3ccnc4cc(OC)c(OC)cc34)c(F)c2)c(=O)n(-c2ccc(F)cc2)c1=O` [Example 105, 2-Ethyl-4-(4-fluoro-phenyl)-3,5-dioxo-2,3,4,5-tetrahydro-[1,2,4]triazine-6-carboxylic acid [4-(6,7-dimethoxy-quinolin-4-yloxy)-3-fluoro-phenyl]-amide], in that order: below 10 nM and 10 to 100 nM.
For `CC(C)n1nc(C(=O)Nc2ccc(Oc3ccnc4cc5c(cc34)OCCO5)c(F)c2)c(=O)n(-c2ccc(F)cc2)c1=O` [Example 106, 4-(4-Fluorophenyl)-2-isopropyl-3,5-dioxo-2,3,4,5-tetrahydro-[1,2,4]triazine-6-carboxylic acid [4-(2,3-dihydro-[1,4]dioxino[2,3-g]quinolin-9-yloxy)-3-fluorophenyl]-amide], in that order: below 10 nM and 10 to 100 nM.
For the compound `COc1cc2nccc(Oc3ccc(NC(=O)c4n[nH]c(=O)n(-c5ccc(F)cc5)c4=O)cc3F)c2cc1OC` [Example 107, 4-(4-Fluoro-phenyl)-3,5-dioxo-2,3,4,5-tetrahydro-[1,2,4]triazine-6-carboxylic acid [4-(6,7-dimethoxy-quinolin-4-yloxy)-3-fluoro-phenyl]-amide], the IC50 in experiment [1] and in experiment [2] was below 10 nM in each case.
With `COc1cc2nccc(Oc3ccc(NC(=O)c4nn(CCO)c(=O)n(-c5ccc(F)cc5)c4=O)cc3F)c2cc1OC` [Example 108, 4-(4-Fluorophenyl)-2-(2-hydroxyethyl)-3,5-dioxo-2,3,4,5-tetrahydro-[1,2,4]triazine-6-carboxylic acid [4-(6,7-dimethoxyquinolin-4-yloxy)-3-fluorophenyl]-amide], the IC50 in experiment [1] and in experiment [2] was below 10 nM throughout.
On to `COc1cc2nccc(Oc3ccc(NC(=O)c4nn(C(C)C)c(=O)n(-c5ccc(F)cc5)c4=O)nc3)c2cc1OC` [Example 110, 4-(4-Fluoro-phenyl)-2-isopropyl-3,5-dioxo-2,3,4,5-tetrahydro-[1,2,4]triazine-6-carboxylic acid [5-(6,7-dimethoxy-quinolin-4-yloxy)-pyridin-2-yl]-amide], for which the half-inhibitory concentration (IC50) is below 10 nM in experiment [1] and 10 to 100 nM in experiment [2].
As to `COc1ccc2c(Oc3ccc(NC(=O)c4nn(C(C)C)c(=O)n(-c5ccc(F)cc5)c4=O)cc3F)ccnc2c1` [Example 111, 4-(4-Fluorophenyl)-2-isopropyl-3,5-dioxo-2,3,4,5-tetrahydro-[1,2,4]triazine-6-carboxylic acid [3-fluoro-4-(7-methoxyquinolin-4-yloxy)-phenyl]-amide], the IC50 is below 10 nM in experiment [1] and 10 to 100 nM in experiment [2].
In the case of `COc1cc2nccc(Oc3ccc(NC(=O)c4nn(CC(C)=O)c(=O)n(-c5ccc(F)cc5)c4=O)cc3F)c2cc1OC` [Example 112, 4-(4-Fluorophenyl)-3,5-dioxo-2-(2-oxo-propyl)-2,3,4,5-tetrahydro-[1,2,4]triazine-6-carboxylic acid [4-(6,7-dimethoxyquinolin-4-yloxy)-3-fluorophenyl]-amide], the IC50 is below 10 nM in experiment [1] and 10 to 100 nM in experiment [2].
`C#CCn1nc(C(=O)Nc2ccc(Oc3ccnc4cc(OC)c(OC)cc34)c(F)c2)c(=O)n(-c2ccc(F)cc2)c1=O` [Example 113, 4-(4-Fluoro-phenyl)-3,5-dioxo-2-prop-2-ynyl-2,3,4,5-tetrahydro-[1,2,4]triazine-6-carboxylic acid [4-(6,7-dimethoxy-quinolin-4-yloxy)-3-fluoro-phenyl]-amide]: the IC50 in experiment [1] and in experiment [2] was below 10 nM in each case.
As to `C#CCn1c(=O)c(C(=O)Nc2ccc(Oc3ccnc4cc(OC)c(OC)cc34)c(F)c2)nn(C)c1=O` [Example 115, 2-Methyl-3,5-dioxo-4-prop-2-ynyl-2,3,4,5-tetrahydro-[1,2,4]triazine-6-carboxylic acid [4-(6,7-dimethoxy-uinolin-4-yloxy)-3-fluoro-phenyl]-amide], the IC50 in experiment [1] is below 10 nM; in experiment [2], 10 to 100 nM.
Consider `COc1cc2nccc(Oc3ccc(NC(=O)c4nn(C)c(=O)n(CC5CC5)c4=O)cc3F)c2cc1OC` [Example 125, 4-Cyclopropylmethyl-2-methyl-3,5-dioxo-2,3,4,5-tetrahydro-[1,2,4]triazine-6-carboxylic acid [4-(6,7-dimethoxy-quinolin-4-yloxy)-3-fluoro-phenyl]-amide], for which the 50% inhibitory concentration (IC50) in experiment [1] was below 10 nM; in experiment [2], 10 to 100 nM.
For the compound `COc1cc2nccc(Oc3ccc(NC(=O)c4nn(C)c(=O)n(CC5CCOCC5)c4=O)cc3F)c2cc1OC` [Example 126, 2-Methyl-3,5-dioxo-4-(tetrahydro-pyran-4-ylmethyl)-2,3,4,5-tetrahydro-[1,2,4]triazine-6-carboxylic acid [4-(6,7-dimethoxy-quinolin-4-yloxy)-3-fluoro-phenyl]-amide], the IC50 in experiment [1] was below 10 nM; in experiment [2], 101 to 1000 nM.
Take `COc1cc2nccc(Oc3ccc(NC(=O)c4nn(C)c(=O)n(CC(C)C)c4=O)cc3F)c2cc1OC` [Example 127, 4-Isobutyl-2-methyl-3,5-dioxo-2,3,4,5-tetrahydro-[1,2,4]triazine-6-carboxylic acid [4-(6,7-dimethoxy-quinolin-4-yloxy)-3-fluoro-phenyl]-amide]: the IC50 in experiment [1] was below 10 nM; in experiment [2], 10 to 100 nM.
With `COc1cc2nccc(Oc3ccc(NC(=O)c4nn(C)c(=O)n(CC5CCC5)c4=O)cc3F)c2cc1OC` [Example 128, 4-Cyclobutylmethyl-2-methyl-3,5-dioxo-2,3,4,5-tetrahydro-[1,2,4]triazine-6-carboxylic acid [4-(6,7-dimethoxy-quinolin-4-yloxy)-3-fluoro-phenyl]-amide], the IC50 was below 10 nM in experiment [1] and 10 to 100 nM in experiment [2].
For `COc1cc2nccc(Oc3ccc(NC(=O)c4nn(C)c(=O)n(CC(C)(C)C)c4=O)cc3F)c2cc1OC` [Example 129, 4-(2,2-Dimethylpropyl)-2-methyl-3,5-dioxo-2,3,4,5-tetrahydro-[1,2,4]triazine-6-carboxylic acid [4-(6,7-dimethoxyquinolin-4-yloxy)-3-fluorophenyl]-amide], in that order: below 10 nM and 10 to 100 nM.
For `Cn1cc(C(=O)Nc2ccc(Oc3ccnc4cc5c(cc34)OCO5)c(F)c2)c(=O)n(-c2ccc(F)cc2)c1=O` [Example 131, 3-(4-Fluoro-phenyl)-1-methyl-2,4-dioxo-1,2,3,4-tetrahydro-pyrimidine-5-carboxylic acid [4-([1,3]dioxolo[4,5-g]quinolin-8-yloxy)-3-fluoro-phenyl]-amide], in that order: below 10 nM and 10 to 100 nM.
Regarding `CCn1cc(C(=O)Nc2ccc(Oc3ccnc4cc(OC)c(OC)cc34)cc2OC)c(=O)n(-c2ccc(F)cc2)c1=O` [Example 143, 1-Ethyl-3-(4-fluorophenyl)-2,4-dioxo-1,2,3,4-tetrahydropyrimidine-5-carboxylic acid [4-(6,7-dimethoxy-quinolin-4-yloxy)-2-methoxyphenyl]-amide], the IC50 in experiment [1] and in experiment [2] was below 10 nM in each case.
For `COc1cc(Oc2ccnc3cc(OC)c(OC)cc23)ccc1NC(=O)c1cn(C)c(=O)n(-c2ccc(F)cc2)c1=O` [Example 144, 1-Methyl-3-(4-fluoro-phenyl)-2,4-dioxo-1,2,3,4-tetrahydro-pyrimidine-5-carboxylic acid [4-(6,7-dimethoxy-quinolin-4-yloxy)-2-methoxy-phenyl]-amide], the concentration for half-maximal inhibition (IC50) is below 10 nM in experiment [1] and 10 to 100 nM in experiment [2].
For the compound `COc1cc(Oc2ccnc3cc(OC)c(OC)cc23)ccc1NC(=O)c1cn(C(C)C)c(=O)n(-c2ccc(F)cc2)c1=O` [Example 145, 1-Isopropyl-3-(4-fluoro-phenyl)-2,4-dioxo-1,2,3,4-tetrahydro-pyrimidine-5-carboxylic acid [4-(6,7-dimethoxy-quinolin-4-yloxy)-2-methoxy-phenyl]-amide], the IC50 is below 10 nM in experiment [1] and 10 to 100 nM in experiment [2].
For `COc1cc2nccc(Oc3ccc(NC(=O)c4cn(C)c(=O)n(-c5ccc(F)cc5)c4=O)c(F)c3F)c2cc1OC` [Example 146, 1-Methyl-3-(4-fluorophenyl)-2,4-dioxo-1,2,3,4-tetrahydro-pyrimidine-5-carboxylic acid [4-(6,7-dimethoxy-quinolin-4-yloxy)-2,3-difluoro-phenyl]-amide], in that order: below 10 nM and below 10 nM.
